# According to patent US20130029981A1, “COMPOUNDS, COMPOSITIONS, AND METHODS FOR CONTROLLING BIOFILMS” (Katholieke Universiteit Leuven, priority 2009, published 2013):
# Key:
# [1] = system: S. Typhimurium ATCC14028; test: Bioscreen assay: influence on planktonic growth curve; assay type: cell-based, Salmonella Typhimurium; settings: 400 μM
# Description: (§1) Some of the tested compounds show a concentration range in which biofilm formation is inhibited but no effect on planktonic growth is observed. These compounds are particularly interesting for prevention of biofilm formation since the development of resistance against these compounds is less likely. Table 8 indicates whether the different compounds have an effect on the planktonic growth of the bacteria at the IC50 for biofilm inhibition. To construct Table 8, the effect of the tested compounds on the growth curve of the bacteria was determined at a concentration equal to the IC50 for biofilm inhibition, by using the Bioscreen system available from Oy Growth Curves Ab Ltd). The Bioscreen device from Oy Growth Curves Ab Ltd was used for measuring the influence of the chemical compounds on the planktonic growth of Salmonella Typhimurium and Pseudomonas aeruginosa. The Bioscreen is a computer controlled incubator/reader/shaker that uses 10×10 well microtiter plates and measures light absorbance of each well at a specified wave length in function of time. An overnight culture of S. […] The broth used was TSB 1/20 for the experiments at 16° C. and 25° C. For experiments at 37° C. CFA medium was used for S. […] As a control 3 μl of the appropriate solvent (DMSO or EtOH) was also added to the plate in 3- or 4-fold. The microtiter plate was incubated in the Bioscreen device at 16° C., 25° C. or 37° C. for at least 36 hours, with continious medium shaking. The absorbance of each well was measured at 600 nm each 15 minutes. Excel was used to generate the growth curves for treated the treated wells and the untreated control wells. Some of the compounds show a concentration range in which biofilm formation is inhibited but no effect on the planktonic growth is observed. Table 14 indicates if the different compounds have an effect on the planktonic growth of the bacteria at the IC50 for biofilm inhibition. To construct this table the effect of the compounds on the growth curve of the bacteria was determined at a concentration equal to the IC50 for biofilm inhibtion, by using the Bioscreen system from Oy Growth Curves Ab Ltd.
# [2] = system: S. Typhimurium ATCC14028; test: as above; assay type: cell-based, Salmonella Typhimurium; parameters: key: x: no influence on planktonic growth at the IC50 for biofilm inhibition; planktonic growth is retarded at the IC50 for biofilm inhibition; settings: planktonic growth at the IC50 for biofilm inhibition, 25° C.
# Description: as §1, with “Table 14 indicates if the different compounds have an effect on the planktonic growth of the bacteria at the IC50 for biofilm inhibition.” left out
# [3] = system: Salmonella Typhimurium ATCC 14028; test: Antibacterial activity: growth inhibition, OD600 after 24 h (GIC50); assay type: cell-based; settings: 25° C.
# Method: Evaluation of antibacterial-inhibitory activity of some substituted 2-amino-1H-imidazoles of the invention was carried out by diluting an overnight culture of Salmonella Typhimurium ATCC 14028 into a liquid medium. 200 μl of the diluted overnight culture was added to each well of a microtiter plate together with different concentrations of the test compound (1/2 dilution series of the compound). After an incubation of 24 hours the optical density at 600 nm of each well was determined with a microtiter plate reader.
# Starting from a 40 mM stock solution of each compound in DMSO, two-fold serial dilutions in 100 μl liquid broth per well were prepared in dublicate in sterile transparant microtiter plates. The broth used was TSB 1/20 for measurements at 25° C. and CFA (in case of Salmonella Typhimurium) and LBNS (in case of Pseudomonas aeruginosa) for measurements at 37° C. Subsequently an overnight culture of the bacteria (S. Typhimurium ATCC14028 or P. aeruginosa PA14) was diluted 1/200 into the corresponding liquid broth and 100 μl was added to each well of the microtiterplate resulting in a total amout of 200 μl medium per well. After an incubation of 24 hours the optical density at 600 nm of each well was determined with a microtiter plate reader (VERSAmax, Molecular Devices).
# Evaluation of antibacterial-inhibitory activity of some substituted imidazo[1,2-a]pyrimidinium bromide salts of the invention was carried out by diluting an overnight culture of Salmonella Typhimurium ATCC14028 or Pseudomonas aeruginosa PA141/200 into liquid medium. 200 μl of the diluted overnight culture was added to each well of a microtiterplate together with different concentrations of the test compound (1/2 dilution series of the compound). After an incubation of 24 hours the optical density at 600 nm of each well was determined with a microtiter plate reader.
# [4] = system: S. Typhimurium ATCC14028; test: Static peg assay for prevention of biofilm formation (Calgary device, crystal violet); assay type: cell-based, Salmonella Typhimurium
# Procedure, shortened: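 Calgary 96-peg device, ca. 10^6 cells of ATCC14028 per well in TSB 1/20 for 24 h at 25° C (or 48 h at 16° C, medium and compound renewed at 24 h), or in CFA broth for 24 h at 37° C, static, with two-fold compound dilutions. Crystal violet stain, acetic acid extraction, OD570. IC50 from 2–3 independent experiments.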
# [5] = system: S. Typhimurium SL1344; test: Growth inhibition of planktonic cells in the peg assay plate (OD600); assay type: cell-based; settings: Salmonella enterica, SL1344, 16° C.
# [6] = system: S. Typhimurium ATCC14028; test: as above; assay type: cell-based, Salmonella Typhimurium; settings: Salmonella enterica, ATCC14028, 16° C.
# [7] = system: S. Typhimurium SL1344; test: Static peg assay for prevention of biofilm formation (Calgary device, crystal violet); assay type: cell-based; settings: Salmonella enterica, SL1344, 16° C., read-out: IC50 biofilm inhibition
# Method: After an incubation period of 24 hours at 25° C. or 37° C. or 48 hours at 16° C. the biofilms were visualized by crystal violet staining. […] Biofilm formation assays were carried out at 16° C., 25° C. and 37° C. […] Subsequently, an overnight culture of S. […] The pegged lid was placed on the microtiter plate and the plate was incubated for 48 hours at 16° C. or for 24 hours at 25° C. without shaking. During this incubation period biofilms were formed on the surface of the pegs. In case of the assay at 16° C., after 24 hours the lid was transferred into a new plate with medium and the specific molecules used for testing. […] The remaining attached bacteria were stained for 30 minutes with 200 μl 0.1% (w/v) crystal violet in an isopropanol/methanol/PBS solution (v/v 1:1:18). Excess stain was rinsed off by placing the pegs in a 96-well plate filled with 200 μl distilled water per well. After the pegs were air dried (30 min), the dye bound to the adherent cells was extracted with 30% glacial acetic acid (200 μl). The OD570 of each well was measured using the VERSAmax microtiter plate reader.
# [8] = Salmonella enterica, ATCC14028, 16° C., read-out: IC50 biofilm inhibition
SMILES,Influence on growth [2],IC50 [5] [µM],IC50 [6] [µM],IC50 [7] [µM],"IC50 [4, 8] [µM]",other results
OC1(c2ccc(F)cc2)C[n+]2cccnc2N1Cc1ccc2c(c1)OCO2.[Br-] (stereo not drawn) [Compound 79],∘,–,–,–,–,"Effect on growth at 400 μM [1]: ∘; IC50 [3]: 200 µM; IC50 ([4]; 25° C., Table 11, read-out: IC50 (biofilm formation)): 29.4 µM; IC50 ([4]; 25° C., Table 14, read-out: IC50 biofilm inhibition): 29.4 µM; IC50 ([4]; 25° C., Table 19, read-out: IC50 (biofilm formation)): 17.2 µM"
"O=[N+]([O-])c1cccc(C2(O)C[n+]3cccnc3N2C2CCCCCCCCCCC2)c1.[Br-] (stereo not drawn) [R1=Cyclododecyl, R3=3-NO2Ph, R4=H, 1-cyclododecyl-2-hydroxy-2-(3-nitrophenyl)-2,3-dihydro-1H-imidazo[1,2-a]pyrimidin-4-ium bromide]",∘,–,–,–,–,"IC50 ([3]; Salmonella enterica): 6 to 12 µM; IC50 ([4]; Salmonella enterica, 25° C., Table 11, read-out: IC50 (biofilm formation)): < 6.25 µM; IC50 ([4]; Salmonella enterica, 25° C., Table 14, read-out: IC50 biofilm inhibition): < 6.25 µM"
c1ccc(Sc2cccc3ccccc23)c(CNC2=NCCN2)c1 [Specs3-4],–,82.6,82.6,15.5,16.6,–
Fc1ccc(Sc2ccccc2CNC2=NCCN2)cc1 [Specs3],–,283,283,~31.8,21.9,–
